Values belong to the compound of their own block, whether it stands above or below them. Peptide text beside a SMILES is read from it. * marks the point of attachment. code Z = not defined here; CH2F = FC*
Key:
[1] = biological target: T1, human recombinant caspase-2 (Homo sapiens, UniProt P42575); assay: In vitro caspase-2 cleavage assay (Ac-VDVAD-AMC substrate); type: biochemical; set-up: key to Group (pattern of caspase-2 inhibition curve): group 1 referred to inhibitors that were relatively more active than VDVAD(SEQ ID NO:9)-based inhibitors against caspase-2 at lower doses, but with similar IC50 values; group 2 referred to VDVAD(SEQ ID NO:9)-based inhibitor with characteristic sigmoid dose-response; group 3 referred to pentapetidic-based inhibitors that were less active than VDVAD(SEQ ID NO:9)-based inhibitors against caspase-2 at lower doses and that exhibited higher IC50; conditions: for VDVAD-AMC cleavage by caspase-2: recombinant caspase-2, FIG. 16; for Group (pattern of caspase-2 inhibition curve) / IC50: Table 4; for IC50: 30 min pre-incubation, 2 h at 37° C.
T1 construct: purchased BIOMOL
T1 sequence (P42575 170-333 limits assumed): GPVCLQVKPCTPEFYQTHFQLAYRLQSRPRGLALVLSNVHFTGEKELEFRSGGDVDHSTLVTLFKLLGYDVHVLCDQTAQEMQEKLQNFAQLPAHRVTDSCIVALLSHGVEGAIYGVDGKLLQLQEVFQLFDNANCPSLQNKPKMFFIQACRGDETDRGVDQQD
T1 sequence (P42575 348-452 limits assumed): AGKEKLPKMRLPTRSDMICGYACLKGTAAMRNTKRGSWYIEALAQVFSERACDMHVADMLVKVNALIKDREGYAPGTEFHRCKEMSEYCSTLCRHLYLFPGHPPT
Procedure: Newly designed inhibitors (Ac-LDEAD(SEQ ID NO:7)-CHO, Ac-VDEAD(SEQ ID NO:1)-CHO . . . ) were compared to Ac-VDVAD(SEQ ID NO:9)-CHO in in vitro caspase-2 cleavage assay according to the following protocol (FIG. 8). Human recombinant caspases (25-50 U; QuantiZyme™ Assay System, BIOMOL, Plymouth, Pa., USA) were pre-incubated 30 min with inhibitors (0.005-2 μM) in final 100 μl final assay buffer (50 mM HEPES, pH 7.4, 100 mM NaCl, 0.1% CHAPS, 10 mM DTT, 1 mM EDTA, 10% glycerol) and then mixed with 200 μM of the fluorogenic caspase substrates (BIOMOL) Ac-VDVAD(SEQ ID NO:9)-AMC. An IC50 value corresponding to the concentration that could inhibit 50% of caspase activity was determined from the dose-response sigmoid curve. The cleavage of AMC-based substrates by human recombinant caspases 1-10 was measured after 2 h at 37° C. on a fluorescence microplate reader by monitoring emission at 510 nm upon excitation at 405 nm.

[2] = tested on: global cerebral ischemia, hippocampus CA1 cell death; assay: Global cerebral ischemia by four-vessel occlusion (4VO) in young-adult rats; type: in vivo, rat; conditions: single i.c.v. 60 ng, 72 h post-ischemia
Procedure: Global cerebral ischemia was induced by four-vessel occlusion (4V0) according a Pulsinelli's derived method (Pulsinelli and Buchman, 1988) in young-adult rats (males Wistar aged of 10-12 weeks, 320 g+/−10 g; Janvier). The first day, head of anesthetised rats was positionned in stereotaxic ear bars and tilted down at approximatively 30° to the horizontal. After a midline incision at the level of cervical spine, both vertebral arteries were exposed under microscope and then coagulated by electocautery needle through the alar foramina at the level of first cervical vertebra. Both common carotides were then exposed 24 h later and clamped for 20-30 min (rats fell in the coma when electrocautherisation of both vertebral arteries have been well performed). Carotid arteries were then declamped to allow blood flow reperfusion. Vehicle and SEQ8 were administrated at the level of the left cerebral ventricule in the first fifth minutes of ischemia (carotides occlusion). Rats were let in their cage with waer et food ad libitum.
The selective loss of vulnerable cells and SEQ8's effects have been evaluated at 72 h. Rats were sacrificed and brain fixed by trans-cardiac perfusion with paraformaldehyde. Frontal brain slices (25 μm) were strained by Cresyl-Violet or co-stained by Hoechst 33342 and Fluorojade B to assess cell death in the hippocampus and in the cortex. […] Fluoro JadeB (green fluorescence) intake is possible only in cells which have permeable plasma membrane, thus more characteristic of dying cells. Hoechst 33342 (blue fluorescence) label nuclei all cells and allows to appreciate nuclear morphology changes during cell death. Cells are counted in three successive slices at such levels in the hippocampus (CA1) in the left brain hemisphere. […] Both Fluoro Jade B and Hoechst stained slices were observed under a Leica DMIRB inverted fluorescence microscope equipped with ×40 objective and LEICA IM1000/Qfluorobase software (BP 340-80 excitation filter combined with LP 425 emission filter for Hoechst; BP 480/40 excitation filter combined with BP 515-560 emission filter for Fluoro Jade B).

[3] = tested on: neonatal ischemic brain injury; assay: Perinatal transient unilateral focal ischemia model in 7 day-old rat pups; type: in vivo; conditions: for reduction of infarct volume: 48 h
Procedure: Newborn Wistar rats (dam plus 9 pups per litter) were obtained from Janvier (Le Genest-St-Isle, France) when the pups were 3-4 days of age. The pups were housed with their dam under a 12:12 h light-dark cycle with food and water freely available. Animal experimentation was conducted according to the French and European Community guidelines for the care and use of experimental animals. Rat pups were anesthetized with an intraperitoneal injection of chloral hydrate (350 mg/kg). Ischemia was performed in 7 day-old rats (17-21 g), as previously described (Renolleau et al., 1998). Anesthetized rats were positioned on their back and a median incision was made in the neck to expose the left common carotid artery. Rats were then placed on the right side and an oblique skin incision was made between the ear and the eye. After excision of the temporal muscle, the cranial bone was removed from the frontal suture to a level below the zygomatic arch. […] After this procedure, a clip was placed to occlude the left common carotid artery. Rats were then placed in an incubator to avoid hypothermia. After 50 min, the clip was removed. Carotid blood flow restoration was verified with the aid of a microscope. Neck and cranial skin incisions were then closed. During the surgical procedure, body temperature was maintained at 37-38° C. Pups were transferred in an incubator (32° C.) until recovery then after to their dams.
Compound was administered intraperitoneally or intraveinously at 1 h after ischemia (corresponding to the reperfusion). Control animals received an equivalent volume of vehicle required to solubilize the pentapeptidic caspase inhibitor. Rats were killed 48 hours after reperfusion and brains were removed. The infarct lesion (pale zone) was visually scored by an observer blinded to the treatment of animals. Brains without a clear ischemic pale zone were observed under a magnifying glass.
Sections from anterior striatum to posterior hippocampus (corresponding to plates 9 to 27 in Paxinos' rat brain atlas) were selected, taken at equally spaced 0.5-mm intervals. The lesion areas were measured on cresyl violet-stained sections using an image analyzer, and the distances between respective coronal sections were used to calculate the infarct volume.

Compound: 2-Quinolinylcarbonyl-L-Valinyl-L-Aspartyl (methyl ester)-L-Vanilyl-L-Alaninyl-L-Aspartyl (methyl ester) 2,6-difluorophenyl ester [SEQ8]
VDVAD-AMC cleavage by caspase-2 [1]: blocked | Cresyl-violet staining intensity [2]: partially restored | abnormal nuclei in CA1 [2]: less abnormal nuclei | cells incorporating Fluorojade B in CA1 [2]: 10-20% | animals with partially or very marked reduced infarct ([3]; 1 mg/kg i.v. (FIG. 18) 1 h post-ischemia): ~50% | animals with partially or very marked reduced infarct ([3]; 0.1 or 1 mg/kg i.p. 1 h post-ischemia): more than 50% | reduction of infarct volume ([3]; single dose 1 mg/kg i.v. (FIG. 18) 1 h post-ischemia): at least 30% | reduction of infarct volume ([3]; single dose 0.1 or 1 mg/kg i.p. 1 h post-ischemia): 44-53%

Compound: CC(=O)N[C@@H](CC(C)C)C(=O)N[C@@H](CC(=O)O)C(=O)N[C@@H](CCC(=O)O)C(=O)N[C@@H](CO)C(=O)N[C@H](C=O)CC(=O)O [Compound 1, Ac-LDESD-cho, reference compound] (Ac-LDESD-aldehyde)
Group (pattern of caspase-2 inhibition curve) [1]: 2/3 | IC50 [1]: 300 ± 20 nM

Compound: CC(=O)N[C@@H](CC(C)C)C(=O)N[C@@H](CC(=O)O)C(=O)N[C@@H](CCC(=O)O)C(=O)NCC(=O)N[C@H](C=O)CC(=O)O [Compound 26, Ac-LDEGD(SEQ ID NO:2)-cho] (Ac-LDEGD-aldehyde)
Group (pattern of caspase-2 inhibition curve) [1]: 3

Compound: Z-VDVAD(SEQ ID NO:9)-FMK ({code Z}-VDVAD-CH2F; reading uncertain) [reference compound]
VDVAD-AMC cleavage by caspase-2 [1]: blocked

Compound: z-LEHD-fmk ({code Z}-LEHD-CH2F; reading uncertain; also: printed as z-LEHD-fmk) [reference compound]
VDVAD-AMC cleavage by caspase-2 [1]: not

The next lines start with the values.

Group (pattern of caspase-2 inhibition curve) [1]: 3
Compound: CC(=O)N[C@@H](Cc1ccccc1)C(=O)N[C@@H](CC(=O)O)C(=O)N[C@@H](CCC(=O)O)C(=O)N[C@@H](CO)C(=O)N[C@H](C=O)CC(=O)O [Compound 3, Ac-FDESD(SEQ ID NO:6)-cho] (Ac-FDESD-aldehyde)

Group (pattern of caspase-2 inhibition curve) [1]: 3
Compound: CC(=O)N[C@H](C(=O)N[C@@H](CC(=O)O)C(=O)N[C@@H](CCC(=O)O)C(=O)N[C@@H](CO)C(=O)N[C@H](C=O)CC(=O)O)C(C)C [Compound 7, Ac-VDESD(SEQ ID NO:4)-cho] (Ac-VDESD-aldehyde)

Group (pattern of caspase-2 inhibition curve) [1]: 3 | IC50 [1]: 300 ± 5 nM
Compound: CC(=O)N[C@@H](CC(C)C)C(=O)N[C@@H](CC(=O)O)C(=O)N[C@@H](CCC(=O)O)C(=O)N[C@@H](CCCCN)C(=O)N[C@H](C=O)CC(=O)O [Compound 27, Ac-LDEKD(SEQ ID NO:5)-cho] (Ac-LDEKD-aldehyde)
